Assay results as given in patent US5616578A (priority 1993, dated 1997).

Legend:
[1] = in vitro; conditions: human, mt-2 cells
Method: Cell viability was determined by the metabolism of the tetrazolium dye, XTT, 3,3'-[1-[phenylamino)carbonyl]-3,4-tetrazolium]bis-(4-methoxy-6-nitrobenzene-sulfonic acid(Sigma)(Scudiero et al., Cancer Res. 48:4827-4833 (1988)). In this assay metabolically active cells transform the tetrazolium dye, XTT, to a soluble colored formazan product. Microtiter plates (96 wells) were seeded with 1×10^5 cells/well and graded concentrations of test compounds in RPMI 1640 plus 5% FCS. Cells (MT-2) were allowed to grow at 36° C. in the presence of compounds for 3 days. To each well was added 0.05 ml of 1 mg XTT/ml in phosphate buffered saline (PBS) containing 0.025 mM phenazine methosulfate. Plates were incubated an additional four hours at 36° C. and the A450 was determined. The absorption was proportional to the number of viable cells in the well. The concentration of compound which produced a 50% reduction in the number of viable cells was designated the TC50.
In order to determine how these combinations affect cell viability, a cytotoxicity assay was conducted on combinations of the two compounds over the range 0.3-100 μg/ml and the TC50 s calculated.

[2] = AZT treatment of HIV positive individuals; cited from earlier work
[3] = system: HIV strains; conditions: time of AZT treatment after which resistant strains observed; cited from earlier work

In the case of `Cc1cn([C@H]2C[C@H](N=[N+]=[N-])[C@@H](CO)O2)c(=O)[nH]c1=O` [AZT, 3'-azido-3'-deoxythymidine], the CC50 at 72 h [1] is given as greater than 100 µg/mL, the Toxicity [2] is given as “frequently toxic, causing bone marrow suppression resulting in anemia, leukopenia and thrombocytopenia” and the “AZT-resistant HIV strains observed” value [3] is given as “six”.
